Measurements published in patent US9718790B2, “Triazine derivative and pharmaceutical composition having an analgesic activity comprising the same” (SHIONOGI & CO., LTD., priority 2010, dated 2017).
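Further: stimulus was 50 nM ATP with fluorescence followed for 3 min, and the response per well was peak post-ATP fluorescence divided by the reading at measurement start.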

These molecules were tested against human P2X3 receptor (Homo sapiens (Human), UniProt P56373) (assay: Evaluation of human P2X3 receptor inhibitory activity (Fluo-3 calcium fluorescence, FDSS 3000, ATP stimulation)). Conditions: C6BU-1 cells stably expressing human P2X3 receptor.
Sequence of human P2X3 receptor (P56373 whole entry): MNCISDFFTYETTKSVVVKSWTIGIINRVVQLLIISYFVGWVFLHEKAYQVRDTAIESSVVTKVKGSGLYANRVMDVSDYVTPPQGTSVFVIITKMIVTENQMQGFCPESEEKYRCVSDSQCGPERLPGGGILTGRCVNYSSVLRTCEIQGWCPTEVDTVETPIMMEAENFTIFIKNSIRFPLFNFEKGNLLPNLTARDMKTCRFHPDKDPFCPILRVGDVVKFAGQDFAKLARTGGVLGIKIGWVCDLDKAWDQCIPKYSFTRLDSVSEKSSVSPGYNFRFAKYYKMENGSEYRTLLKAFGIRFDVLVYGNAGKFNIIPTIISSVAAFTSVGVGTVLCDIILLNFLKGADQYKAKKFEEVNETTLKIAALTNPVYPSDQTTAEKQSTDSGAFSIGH
Assay type: cell-based
With CC(C)Oc1ccc(/N=c2\[nH]c(=O)n(C3C[C@H]3C(=O)O)c(=O)n2Cc2ccc(Cl)cc2)cc1F (stereo partly drawn) [Compound I-0674] the IC50 was 126 nM.
Cc1ccc(Cn2c(=O)n(C[C@H](C)C(=O)O)c(=O)[nH]/c2=N\c2ccc(OC3CCCCC3)nc2)cc1 [Compound I-1188] was tested, and the IC50 was 131 nM.
Work on Cc1ccc(Cn2c(=O)[nH]c(=O)[nH]/c2=N\c2ccc(Oc3ccnc(C(=O)O)c3)cc2)cc1 [Compound I-2140] yielded an IC50 of 7 nM.
Molecule CC1CCC(Cn2c(=O)n(CCC(N)=O)c(=O)[nH]/c2=N\c2ccc(OC(C)C)c(Cl)c2)CC1 (stereo not drawn) [Compound I-2020] has an IC50 of 6 nM.
For CCOC(=O)CCCn1c(=O)[nH]/c(=N\c2ccc3oc(C)cc3c2)n(Cc2ccc(C)cc2)c1=O [Compound I-0574], the IC50 was 15 nM.
Work on CNC(=O)CCn1c(=O)[nH]/c(=N\c2ccc(OCC3CC3)cc2)n(Cc2ccc(Cl)cc2)c1=O [Compound I-1912] yielded an IC50 of 29 nM.
COC(=O)[C@@H](C)[C@@H](C)n1c(=O)[nH]/c(=N\c2ccc(OC3CCC3)cc2)n(Cc2ccc(Cl)cc2)c1=O [Compound I-1452] gave an IC50 of 14 nM.
CCOc1ccc(/N=c2\[nH]c(=O)n(C[C@H](C)C(=O)OC)c(=O)n2Cc2ccc(C)cc2)cc1F [Compound I-0605] gave an IC50 of 25 nM.
CCOC(=O)CCn1c(=O)[nH]/c(=N\c2ccc(Oc3ccncc3)cc2)n(Cc2ccc(C)cc2)c1=O [Compound I-1230] showed an IC50 of 4 nM.
With CC(C)COc1ccc(/N=c2\[nH]c(=O)n(C[C@H](C)C(=O)O)c(=O)n2Cc2ccc(Cl)cc2)cc1 [Compound I-0750] the IC50 was 22 nM.
Cc1oc2ccc(/N=c3\[nH]c(=O)n(CCCO)c(=O)n3Cc3ccc(Cl)cc3)cc2c1C [Compound I-2074] was tested, and the IC50 was 7 nM.
CCn1c(=O)[nH]/c(=N\c2ccc(Oc3ccc(N)nc3)cc2)n(Cc2ccc(Cl)cc2)c1=O [Compound I-2214] showed an IC50 of 22 nM.
Work on COC(=O)C[C@@H](C)Cn1c(=O)[nH]/c(=N\c2ccc(OC(C)C)c(C)c2)n(Cc2ccc(Cl)cc2)c1=O [Compound I-0761] yielded an IC50 of 15 nM.
For CCCc1ccc(/N=c2\[nH]c(=O)n(CCC(=O)OCC)c(=O)n2Cc2ccc(Cl)cc2)cc1C [Compound I-1250], the IC50 was 54 nM.
C[C@@H](C(=O)O)[C@H](C)n1c(=O)[nH]/c(=N\c2ccc(OC3CCC3)cc2)n(Cc2ccc(Cl)cc2)c1=O [Compound I-1391] was tested, and the IC50 was 16 nM.

Same assay, conditions: C6BU-1 cells stably expressing human P2X3 receptor, Fluo-3 fluorescence, FDSS 3000
CCc1oc2ccc(/N=c3\[nH]c(=O)n(CCCNC(=O)C(F)(F)F)c(=O)n3Cc3ccc(Cl)cc3)cc2c1C [Compound I-1567] showed an IC50 of 12 nM.
COC(=O)CCn1c(=O)[nH]/c(=N\c2cc(C(=O)OC)n(C)c2)n(Cc2ccc(C)cc2)c1=O [Compound I-1836] gave an IC50 of 787 nM.
Work on COC(=O)[C@@H](C)Cn1c(=O)[nH]/c(=N\c2cccc(CC(C)C)c2)n(Cc2ccc(C)cc2)c1=O [Compound I-1132] yielded an IC50 of 586 nM.
Work on CCOC(=O)CN1CC(n2c(=O)[nH]/c(=N\c3ccc(OC(C)C)c(C)c3)n(Cc3ccc(Cl)cc3)c2=O)C1 [Compound I-1741] yielded an IC50 of 55 nM.
With CC[C@H](C)Oc1ccc(/N=c2\[nH]c(=O)n(C[C@H](C)C(=O)O)c(=O)n2Cc2ccc(C)cc2)cc1Cl [Compound I-1014] the IC50 was 17 nM.
CCC[C@@H](C)Oc1ccc(/N=c2\[nH]c(=O)n(C[C@H](C)C(=O)OC)c(=O)n2Cc2ccc(C)cc2)cc1 [Compound I-1047] showed an IC50 of 154 nM.
Molecule C[C@@H](C(=O)O)[C@H](C)n1c(=O)[nH]/c(=N\c2ccc3oc(-c4ccccc4)nc3c2)n(Cc2ccc(Cl)cc2)c1=O [Compound I-1814] has an IC50 of 299 nM.
With CC[C@H](C)COc1ccc(/N=c2\[nH]c(=O)n(C[C@H](C)C(=O)OC)c(=O)n2Cc2ccc(C)cc2)cc1 [Compound I-1045] the IC50 was 159 nM.
CC[C@@H](C)Oc1ccc(/N=c2\[nH]c(=O)n(C[C@H](C)C(=O)O)c(=O)n2Cc2ccc(C)cc2)cc1Cl [Compound I-1013] gave an IC50 of 5 nM.
Cc1ccc(Cn2c(=O)n(CCC(=O)O)c(=O)[nH]/c2=N\c2ccc(OC(C)C)c(C)c2)cc1 [Compound I-1158] showed an IC50 of 63 nM.
Work on O=c1[nH]/c(=N\c2ccc(Oc3ccnc(O)c3)cc2)n(Cc2ccc(Cl)cc2)c(=O)n1CCO [Compound I-1712] yielded an IC50 of 4 nM.
With CCc1oc2ccc(/N=c3\[nH]c(=O)n(CCO)c(=O)n3Cc3ccc(Cl)cc3)cc2c1C [Compound I-1633] the IC50 was 16 nM.
For CCn1c(=O)[nH]/c(=N\c2ccc(Oc3cccc(C(=O)OC)c3)cc2)n(Cc2ccc(Cl)cc2)c1=O [Compound I-1880], the IC50 was 15 nM.
Cc1ccc(Cn2c(=O)n(C[C@H](C)C(=O)O)c(=O)[nH]/c2=N\c2ccc(OC(C)C)c(C#N)c2)cc1 [Compound I-0961] gave an IC50 of 74 nM.
With Cc1ccc(Cn2c(=O)n(CCC(=O)O)c(=O)[nH]/c2=N\c2ccc3nc(C4CC4)sc3c2)cc1 [Compound I-1561] the IC50 was 32 nM.
COc1ccc(Oc2ccc(/N=c3\[nH]c(=O)n(CCO)c(=O)n3Cc3ccc(Cl)cc3)cc2)cn1 [Compound I-1732] showed an IC50 of 11 nM.

Same assay, conditions: human P2X3 receptor, Test Example 1
In the case of Cc1nsc(Oc2ccc(/N=c3\[nH]c(=O)n(CCO)c(=O)n3Cc3ccc(Cl)cc3)cc2)n1 [Compound I-2575], the IC50 is reported as 6 nM.
Cc1nsc(Oc2ccc(/N=c3\[nH]c(=O)n(CC(N)=O)c(=O)n3Cc3ccc(Cl)cc3)cc2)n1 [Compound I-2589] was tested, and the IC50 was 6 nM.
CNC(=O)[C@@H](CCO)n1c(=O)[nH]/c(=N\c2ccc(OC(C)C)c(C)c2)n(Cc2ccc(Cl)cc2)c1=O [Compound I-0870] gave an IC50 of 530 nM.
Molecule Cc1ccc(Cn2c(=O)n(C[C@H](C)C(=O)O)c(=O)[nH]/c2=N\c2ccc(CC(C)(C)F)c(Cl)c2)cc1 [Compound I-1531] has an IC50 of 25 nM.
For CCn1c(=O)[nH]/c(=N\c2cccc(Oc3cccc(C(=O)O)n3)c2)n(Cc2ccc(Cl)cc2)c1=O [Compound I-2592], the IC50 was 350 nM.
Work on CCCOc1ccc(/N=c2\[nH]c(=O)n([C@H](C)CC(=O)OC)c(=O)n2Cc2ccc(C)cc2)cc1Cl [Compound I-0877] yielded an IC50 of 28 nM.
For CCn1c(=O)[nH]/c(=N\c2ccc(Oc3ccncc3)cc2)n(Cc2ccc(C)cc2)c1=O [Compound I-2573], the IC50 was 6 nM.
CCn1c(=O)[nH]/c(=N\c2ccc(Oc3cc(C(N)=O)n[nH]3)cc2)n(Cc2ccc(Cl)cc2)c1=O [Compound I-2417] showed an IC50 of 41 nM.
For O=c1[nH]/c(=N\c2ccc(Oc3ccn[nH]3)cc2)n(Cc2ccc(Cl)cc2)c(=O)n1CC(CO)CO [Compound I-2454], the IC50 was 35 nM.
In the case of O=C(O)c1cncc(Oc2ccc(/N=c3\[nH]c(=O)n(C4CCC4)c(=O)n3Cc3ccc(Cl)cc3)cc2)c1 [Compound I-2485], the IC50 is reported as 8 nM.
CCn1c(=O)[nH]/c(=N\c2ccc(Oc3cc(C(=O)O)ncn3)cc2)n(Cc2ccc(C)cc2)c1=O [Compound I-2444] showed an IC50 of 8 nM.
O=C(O)c1cc(Oc2ccc(/N=c3\[nH]c(=O)n(C4CC4)c(=O)n3Cc3ccc(Cl)cc3)cc2)ccn1 [Compound I-2330] was tested, and the IC50 was 7 nM.
Molecule CCC(=O)Nc1ccc(Oc2ccc(/N=c3\[nH]c(=O)n(CC)c(=O)n3Cc3ccc(Cl)cc3)cc2)cn1 [Compound I-2242] has an IC50 of under 4 nM.
Molecule CCn1c(=O)[nH]/c(=N\c2ccc(Sc3nc[nH]n3)cc2)n(Cc2ccc(Cl)cc2)c1=O [Compound I-2598] has an IC50 of 341 nM.
CC1(C)OC[C@H](Cn2c(=O)[nH]/c(=N\c3ccc(Oc4ccon4)cc3)n(Cc3ccc(Cl)cc3)c2=O)O1 [Compound I-2289] gave an IC50 of under 4 nM.
COC(=O)[C@@H](C)Cn1c(=O)[nH]/c(=N\c2ccc(OC3CC3)cc2)n(Cc2ccc(C)cc2)c1=O [Compound I-1514] was tested, and the IC50 was 24 nM.
Cc1nnc(Oc2ccc(/N=c3\[nH]c(=O)n(C)c(=O)n3Cc3ccc(Cl)cc3)cc2)o1 [Compound I-2355] gave an IC50 of 71 nM.
